Experimental findings from US20230257484A1, “DENDROBIUM OFFICINALE OLIGOSACCHARIDE, DENDROBIUM OFFICINALE OLIGOSACCHARIDE DERIVATIVE AND PREPARATION METHOD AND USE THEREOF” (KUNMING INSTITUTE OF BOTANY, CHINESE ACADEMY OF SCIENCES, priority 2021, published 2023) are described below.

Some results are limits rather than exact numbers.

A short description of experiment [1]: DPPH free radical scavenging. The format is biochemical. The protocol:
Experiment on the DPPH Free Radical Scavenging
DPPH, water-soluble vitamin E (Trolox) (Trolox dissolved in absolute ethanol, with a concentration of 10 mM, stored at −20° C.), pure water.
The drug to be tested was mixed with DPPH (a final concentration of 100 µM) and reacted at 30° C. for 1 h. 3 repeating wells were set, and a blank control well without drug and a Trolox positive control well were set at the same time. The OD value was measured by a microplate reader with a detection wavelength of 515 nm, and the anti-oxidation rate was calculated.
Anti-oxidation rate (%)=(1−experimental well OD515nm/blank well OD515nm)×100%.

The next experiment deals with collagenase. The experiment in a line: Collagenase inhibition rate. Type of experiment: biochemical. The protocol: Experiment on Collagenase Inhibition Rate
Protease buffer solution, protease, protease substrate, inhibitor (1,10-Phenanthroline). All reagents were stored at −20° C.
a. Background blank well: 100 μL/well of protease buffer solution.
b. Sample well: 100 μL, prepared into different concentrations.
c. Positive control well: 10 μL of protease+90 μL of protease buffer solution.
(3) After adding reagents according to the above groups, 100 μL of collagenase reaction mixture was added to each well, incubated in the dark, and then the OD value at 345 nm was measured.
The incubation time depended on the activity of the sample to be tested, and the low activity sample could be incubated for 1-3 h.
Collagenase inhibition rate (%)=(ODbackground well−ODsample well)/(ODbackground well−ODpositive control well).

Experiment [2] has as its target porcine pancreatic elastase (Sus scrofa, UniProt P00772). The experiment in a line: Elastase inhibition rate. Type of experiment: biochemical. Here is the method: Experiment on the Elastase Inhibition Rate
Sample, positive control of catechin, Tris, HCl, porcine pancreatic elastase, N-succinyl-alanine-alanine-alanine-p-nitroaniline, DMSO.
Preparation of a sample solution: 1 mg/mL sample solution was prepared (pure water or a buffer solution was used for preparation, and if insoluble in water or the buffer solution, the sample was firstly dissolved with DMSO, and then water or the buffer solution was added. In principle, the content of DMSO should not exceed 5%).
Preparation of a positive control: 1 mg/mL catechin;
Preparation of a buffer solution: 0.1 M of Tris-HCl buffer solution, PH=8.0;
Preparation of a reaction substrate solution: N-succinyl-alanine-alanine-alanine-p-nitroaniline (AAAPVN) solution (2 mM);
Preparation: 28.5 μL of porcine pancreatic elastase solution (0.171 U/mL) was taken and dissolved in 10 mL of Tris-HCl buffer solution.
(2) The solution of 50 μL of sample, 50 μL of porcine pancreatic elastase and 100 μL of reaction substrate was added to a 96-well plate.
(3) After keeping at room temperature for 5 min, an absorbance at 420 nm was measured.
Elastase inhibition rate (%)=(1−sample OD420 nm/experimental well OD420 nm)×100%.

The test system of another experiment is Hacat cells. The experiment in a line: Survival of Hacat cells. Type of experiment: cell-based, human.
A further experiment has as its system RAW264.7 cells. The experiment in a line: Survival of RAW264.7 cells. The format is cell-based.
Experiment [3] has as its system secretion of hyaluronic acid, Hacat cells. The experiment in a line: Promoting secretion of hyaluronic acid in Hacat cells (ELISA). The format is cell-based, human. To be noted: for Secretion of hyaluronic acid: Hacat cells, 24 h. Here is the method: Experiment on Promoting Secretion of Hyaluronic Acid
Human immortalized […] (Hacat cells), human hyaluronic acid Elisa kit, distilled water.
A 96-well plate was inoculated with […] of cell suspension per well, and a concentration of the suspension was 4×10^5 cells/mL. After 24 h of incubation, the original culture medium was discarded, then the cells were washed with PBS for 1-2 times and the serum-free medium containing different concentrations of the drug to be tested was added thereto, and continued to incubate for 24 h. A blank control without drugs and a TGF-β positive control were set. Then the cells were lysed with ripa lysis buffer solution containing 1% PMSF, the supernatant after centrifugation was taken, and the secretion of hyaluronic acid was detected according to the method provided in the […]. The OD value was measured by a microplate reader with a detection wavelength of 450 nm. The OD value was substituted into the regression equation of the standard curve to calculate the increase rate of the secretion of hyaluronic acid.

The subject of experiment [4] is IL-6 secretion, RAW264.7 cells. The experiment in a line: Immunomodulatory activity: IL-6 secretion by RAW264.7 cells (ELISA). To be noted: for IL-6 pg/mL: RAW264.7, 24 h. The format is cell-based. The protocol: (§1) Evaluation of the Immunomodulatory Activity of Dendrobium officinale Oligosaccharides RAW264.7 cells, TNF-α kit, IL-6 kit, distilled water. The logarithmic-growth RAW264.7 cells were taken and inoculated into 12-well plates after cell counting. The plate was placed in an incubator overnight, and then the cell supernatant was discarded. Different concentrations of Dendrobium officinale oligosaccharides, lipopolysaccharides and basal medium 1640 were added under aseptic operation, and the supernatant after 24 h of intervention was collected and stored at −20° C. for later use. The changes in TNF-α and IL-6 secretion were detected according to the instructions of the ELISA kit. The OD value was measured by a microplate reader with a detection wavelength of 450 nm. The OD value was substituted into the regression equation of the standard curve to calculate the increase rate of TNF-α and IL-6 secretion.

In experiment [5] the test system is TNF-α secretion, RAW264.7 cells. The experiment in a line: Immunomodulatory activity: TNF-α secretion by RAW264.7 cells (ELISA). The format is cell-based. To be noted: for TNF-α: RAW264.7, 24 h. Here is the method:
as §1

Setting [6] is: final reaction concentration 1%.
[7] abbreviates: final reaction concentration 4%.
The mark [8] stands for this setting: final reaction concentration 8%.
Where [9] appears, read: final reaction concentration 11%.
The mark [10] stands for this setting: final reaction concentration 15%.
Where [11] appears, read: final reaction concentration 20%.

Sequence of porcine pancreatic elastase (P00772 27-266): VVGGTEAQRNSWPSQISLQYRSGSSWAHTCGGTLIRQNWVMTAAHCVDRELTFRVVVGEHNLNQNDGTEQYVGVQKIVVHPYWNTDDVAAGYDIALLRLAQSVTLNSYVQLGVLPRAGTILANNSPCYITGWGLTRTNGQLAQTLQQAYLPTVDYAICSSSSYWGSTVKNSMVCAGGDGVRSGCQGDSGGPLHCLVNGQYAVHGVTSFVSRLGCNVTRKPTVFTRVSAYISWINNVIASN

As for `Cc1c(C)c2c(c(C)c1O)CCC(C)(C(=O)O)O2` (stereo not shown) [Trolox, reference compound], the “Anti-oxidation rate (%)” value in experiment [1] (final reaction concentration 25 (unit not given), DPPH, 30° C., 1 h) is 95.668%.

On to `c1cnc2c(c1)ccc1cccnc12` [Positive inhibitor, 1,10-Phenanthroline, reference compound], for which, in the experiment with collagenase (setting [6]), the “Collagenase inhibition rate (%)” value was determined as 102.23%.

In experiment [2] (final reaction concentration 100 μg/ml), `O=C(O[C@@H]1Cc2c(O)cc(O)cc2O[C@@H]1c1ccc(O)c(O)c1)c1cc(O)c(O)c(O)c1` [epicatechin gallate, reference compound] registered an inhibition at 100 µg/mL of 68.5%.

`O=C(O)C1O[C@@H](O)C(O)C(O)[C@@H]1O[C@@H]1OC(CO)[C@@H](O[C@@H]2OC(CO)[C@@H](O[C@@H]3OC(CO)[C@@H](O[C@@H]4OC(CO)[C@H](O[C@@H]5OC(CO)[C@H](O)C(O)C5O)C(O)C4O)C(O)C3O)C(O)C2O)C(O)C1O` (stereo partly shown) [Dendrobium officinale oligosaccharide]: the “survival rate and survival time of cells” value in the experiment on Hacat cells was “increase the survival rate and survival time”; with RAW264.7 cells, “increase the survival rate and survival time”. The same compound gave a collagenase inhibition activity in the experiment with collagenase (concentration of 0.4%-4%) greater than 50%. In addition, the “Collagenase inhibition rate (%)” value with collagenase (final reaction concentration 0.4%) came to 50.32%; in the experiment with collagenase (final reaction concentration 0.8%) it was 63.63%; in the experiment on collagenase (setting [6]), 72.20%; in the experiment with collagenase (final reaction concentration 2%) it was 84.80%; with collagenase (setting [7]) it was 110.54%. For the same compound, the “activity to promote the secretion of hyaluronic acid” value in experiment [3] (concentration of 8%-20%) is recorded as greater than 0.3 ng/mL. Further, the “Secretion of hyaluronic acid” value came out at 0.2294 ng/mL in experiment [3] (setting [7]); 0.5530 ng/mL in experiment [3] (setting [8]); 0.3691 ng/mL in experiment [3] (setting [9]); 0.4930 ng/mL in experiment [3] (setting [10]); 0.5392 ng/mL in experiment [3] (setting [11]). Also, the “secretion of IL-6 by RAW264.7 macrophages (in words)” value in experiment [4] (concentration of 50 μg/mL, equivalent to the positive control LPS) was “significantly increased”. Besides, the entries for the “IL-6 pg/mL” value in experiment [4] (final reaction concentration 50 μg/mL), in experiment [4] (final reaction concentration 100 μg/mL) and in experiment [4] (final reaction concentration 200 μg/mL) were 1593.01 pg/mL, 1376.42 pg/mL and 1117.33 pg/mL, respectively. Besides, the anti-oxidation rate in experiment [1] (concentration of 15%-20%) was greater than 20%. Further, the “Anti-oxidation rate (%)” value was 11.335% in experiment [1] (setting [7]); 14.346% in experiment [1] (setting [8]); 16.213% in experiment [1] (setting [9]); 21.155% in experiment [1] (setting [10]); 25.217% in experiment [1] (setting [11]). Also, the elastase inhibition activity in experiment [2] (concentration of 20%) is on record as greater than 10%. In addition, the “Elastase inhibition rate %” value in experiment [2] (setting [7]) is listed as −2.135%; in experiment [2] (setting [8]) it was 3.886%; in experiment [2] (setting [9]), 8.417%; in experiment [2] (setting [10]), 9.723%; in experiment [2] (setting [11]), 15.827%. The “secretion of TNF-α by RAW264.7 macrophages (in words)” value in experiment [5] (concentration of 3.125 μg/mL, equivalent to the positive control LPS) is on record as “significantly increased”. The “TNF-α” value came to 1062.29 pg/mL in experiment [5] (final reaction concentration 3.125 μg/mL), 35.66 pg/mL in experiment [5] (final reaction concentration 6.25 μg/mL) and 53.86 pg/mL in experiment [5] (final reaction concentration 12.5 μg/mL).
